Values joined by “and” are separate entries in the source; they are usually repeats but may differ in a detail not shown here. Identical values can stand only once.
What was measured:
[1] = Microsomal stability assay, human liver microsomes; assay type: in vitro ADME; conditions: for Remaining in hepatic microsomes (100 at 0 min): human microsomes, Figure 5C; for Hepatic clearance: predicted from microsomal data
Method: (§1) A total of 445 μL of the working solution was transferred into prewarmed incubation plates for treated (T60) and control (NCF60) measurements. After preincubation (10 minutes at 37°C with constant shaking), 54 μL was transferred to the blank plate, followed by 6 μL of NADPH and 180 μL quenching solution. In parallel, 5 μL of WCDD301 (100 μM) was added into incubation plates (T60 and NCF60) containing microsomes and mixed thoroughly (3 times). For the NCF60 plate, 50 μL of buffer was added, mixed (thoroughly, 3 times), shaken, and incubated at 37°C for 60 minutes. In the quenching plate T0, quenching solution (180 μL) and NADPH cofactor (6 μL) were added. For T60 plate, 54 μL of the mixture was placed into the quenching plate (for T0 point), followed by adding 44 μL NADPH cofactor with shaking incubation at 37°C for 60 minutes. Quenching solution (180 μL) was added to quenching plates at 5, 15, 30, 45, and 60 minutes, and 60 μL of sample was transferred from T60 plate per time point to the quenching plates. For the NCF60 plates, 60 μL sample from the NCF60 incubation plate was transferred to the quenching plate (containing quenching solution) at the 60-minute time point. After plates were shaken for 10 minutes and centrifuged (1,750g, 20 minutes at 4°C), 80 μL of the supernatant was transferred into 240 μL HPLC water for LC-MS/MS analysis. The following first-order kinetic equation was used to calculate half-life (T1/2): [drawing 3]; when
(§2) Then, intrinsic clearance [CLint (microsomal; mic)] and hepatic clearance [CLint (liver)] were predicted using the following equations ([66]): […]

[2] = Microsomal stability assay, CD-1 mouse liver microsomes; assay type: in vitro ADME; conditions: for Remaining in hepatic microsomes (100 at 0 min): mouse microsomes, Figure 5D; for Hepatic clearance: mouse, predicted from microsomal data
Method: as §1, §2

[3] = tested on: murine dispersed islet cells; test: Glucagon secretion from murine dispersed islet cells; assay type: cell-based, mouse; conditions: for Secretion of glucagon: Rhy (2.5 µM) alone, listed as Rhy
Method: (§3) Pancreata of nondiabetic C57BL/6J mice were digested using collagenase P (Roche Diagnostics, catalog 11213873001), and islets were manually picked up using a stereomicroscope (ZEISS Stemi 305). […] Isolated mouse islets or provided human islets were dispersed as described ([28]). Briefly, 100–120 islets were washed 2 times using modified HBSS, then dispersed in 600 μL Accutase (Innovative Cell Technologies, catalog AT-104) by gently pipetting up and down for 7 minutes at 37°C. […] Following refreshing of KRBH, cells were dispensed in 8 microfuge tubes (2,000 cells/tube) and treated with WCDD301, preclustered Ephrin-A5 Fc, or preclustered Fc in the presence or absence of the competitive inhibitor of EphA4 receptor, rhyncophylline ([60]) (MilliporeSigma, catalog SML2345). In the presence or absence of these effectors, secretion assay was performed sequentially as shown in Supplemental Table 5. […] Preclustering of Ephrin-A5 Fc was done by mixing Ephrin-A5 Fc or Fc alone (BioLegend, catalog 790102) with anti-Fc antibody (Invitrogen, catalog A16086) (1:10 molar ratio) 20 minutes before treatment ([62]). […] Shedding of cleaved EphA4 was measured from the cell culture medium. Experiments were performed by dispersion of 200 islets, and EphA4 levels in media were measured by EphA4 ELISA (ABclonal, catalog RK06572).

[4] = tested on: human donor dispersed islet cells; test: Glucagon secretion from healthy human donor dispersed islet cells; assay type: cell-based; conditions: human α cells; range of concentrations; Supplemental Figure 1A
Method: as §3
The Integrated Islet Distribution Program provided us human donor islets with their characteristics (Supplemental Table 6). Islets were centrifuged at 500g for 3 minutes, resuspended in CMRL 1066 medium (Gibco, catalog 1150-037) containing 11 mM glucose, and rested in an incubator overnight.
For the hormone secretion assay, islets or dispersed islet cells were adapted in KRBH buffer containing 11 mM glucose for 1 hour. Then, after 2 washes in HBSS containing 11 mM glucose, islets or cells were treated in the following sequential order in the presence or absence of WCDD301: incubation in KRBH (1 mM glucose, 30 minutes) followed by medium collection, incubation in KRBH (11 mM glucose, 30 minutes) followed by medium collection.

[5] = Plasma stability assay, human plasma; assay type: in vitro ADME; conditions: for Ln (% Remaining): human plasma, 37°C, Figure 5A
Method: (§4) Pooled frozen plasma of CD-1 mice (n = 20; catalog MSE00PLK2M2N, Beijing Vital River Laboratory Animal Technology) or humans (n = 6, catalog […]2P2N, Bioreclamation IVT), equal numbers of males and females, was thawed in a 37°C water bath, and residual clots were removed by centrifugation (500g for 5 minutes). Plasma (98 μL) was aliquoted in each well of 96-well reaction plates using an Apricot automation workstation. WCDD301 (100 μM) or propantheline bromide (100 μM, as a positive control) was added (2 μL/well) to sets of wells assigned to blank or time points (T0, T10, T30, T60, and T120 minutes) and incubated at 37°C. At each time point, the reaction was stopped by adding stop solution (500 μL; a mixture of 200 ng/mL of tolbutamide and labetalol in acetonitrile), mixed thoroughly, sealed, shaken (20 minutes), and centrifuged (1,750g, 4°C, 20 minutes). A total of 150 μL of the supernatant from each well of the reaction plate was transferred to its corresponding bioanalysis plate for LC-MS/MS analysis. The remaining level (%) of the WCDD301 was calculated using the following equation: remaining (%) = (PAR at each time point/PAR at T0) × 100. PAR stands for the peak area ratio of the WCDD301 versus internal standard.

[6] = Plasma stability assay, CD-1 mouse plasma; assay type: in vitro ADME; conditions: for Ln (% Remaining): mouse plasma, 37°C, Figure 5B
Method: as §4

## C[C@]12CC[C@H]3[C@@H](CCC4=CC(=O)CC[C@@]43C)[C@@H]1CC[C@@H]2O [Testosterone]
[1]; human
  Intrinsic microsomal clearance: 95.6 µL/min/mg
  Microsomal half-life: 14.5 min
  Hepatic clearance: 86 mL/min/kg
[1]; 5 min
  Remaining in hepatic microsomes (100 at 0 min): 78.1
[1]; 15 min
  Remaining in hepatic microsomes (100 at 0 min): 33
[1]; 30 min
  Remaining in hepatic microsomes (100 at 0 min): 12.9
[1]; 45 min
  Remaining in hepatic microsomes (100 at 0 min): 8.4
[1]; 60 min
  Remaining in hepatic microsomes (100 at 0 min): 6.4
[2]; CD-1, mouse, liver microsomes
  half-life at 1 µM: 5.4 min
[2]; CD-1, mouse, liver microsomes, read-out: Intrinsic microsomal clearance
  microsomal CLint at 1 µM: 257 µL/min/mg
[2]; 5 min
  Remaining in hepatic microsomes (100 at 0 min): 43.1
[2]; 15 min
  Remaining in hepatic microsomes (100 at 0 min): 11.2
[2]; 30 min
  Remaining in hepatic microsomes (100 at 0 min): 2
[2]
  Hepatic clearance: 1018.5 mL/min/kg

## O=C(O)Cc1ccccc1Nc1c(Cl)cccc1Cl [Diclofenac]
[1]; human
  Intrinsic microsomal clearance: 313.9 µL/min/mg
  Hepatic clearance: 282.5 mL/min/kg
[1]; 5 min
  Remaining in hepatic microsomes (100 at 0 min): 48.7
[1]; 15 min
  Remaining in hepatic microsomes (100 at 0 min): 9.3
[1]; 30 min
  Remaining in hepatic microsomes (100 at 0 min): 0.9
[1]; human, liver microsomes
  half-life at 1 µM: 4.4 min
[2]; 5 min
  Remaining in hepatic microsomes (100 at 0 min): 85.5
[2]; 15 min
  Remaining in hepatic microsomes (100 at 0 min): 77.8
[2]; 30 min
  Remaining in hepatic microsomes (100 at 0 min): 58.6
[2]; 45 min
  Remaining in hepatic microsomes (100 at 0 min): 52.8
[2]; 60 min
  Remaining in hepatic microsomes (100 at 0 min): 39.3
[2]
  Hepatic clearance: 115.5 mL/min/kg

## N=C(N)NCCC[C@H](N)C(=O)O [Arginine, reference compound]
[3]; Arginine 25 mM alone, Supplemental Figure 2
  Effect on glucagon secretion: significantly increased glucagon secretion

## COc1cc2nc(N3CCN(C(=O)C4COc5ccccc5O4)CC3)nc(N)c2cc1OC (centres unmarked) [Doxazosin, reference compound]
[4]
  Effect on glucagon secretion: increased glucagon secretion
[3]; mouse α cells, range of concentrations, Supplemental Figure 1B-E
  Effect on glucagon secretion: increased glucagon secretion

## CC[C@H]1CN2CC[C@]3(C(=O)Nc4ccccc43)[C@@H]2C[C@@H]1/C(=C\OC)C(=O)OC [rhyncophylline, reference compound]
[3]; Glucose (1 mM), Figure 1H
  Secretion of glucagon: 0.87 and 0.81 and 0.85 and 0.79 and 0.82
[3]; Glucose (11 mM), Figure 1H
  Secretion of glucagon: 0.41 and 0.5 and 0.38 and 0.45 and 0.4
[3]; competitive inhibitor of EphA4, Figure 1H
  Effect of EphA4 inhibition on suppression of glucagon secretion: abolished the suppressive effect of both Ephrin-A5 and 1.5 μM WCDD301 on glucagon secretion

## CC(C)[N+](C)(CCOC(=O)C1c2ccccc2Oc2ccccc21)C(C)C [Propantheline, propantheline bromide]
[5]; both sexes, human, plasma
  half-life at 2 µM: 9.8 min
[5]; 10 min
  Ln (% Remaining): -0.39
[5]; 30 min
  Ln (% Remaining): -2.06
[5]; 60 min
  Ln (% Remaining): -4.13
[6]; both sexes, CD-1, mouse, plasma
  half-life at 2 µM: 34.3 min
[6]; 10 min
  Ln (% Remaining): -0.31
[6]; 30 min
  Ln (% Remaining): -0.9
[6]; 60 min
  Ln (% Remaining): -1.58
[6]; 120 min
  Ln (% Remaining): -2.45
